molecular target: tyrosinase from fungi; experiment: Tyrosinase assay (L-DOPA as substrate); type: biochemical; settings: tyrosinase from fungi (16U), phosphate buffer pH 6.8, 25° C., optical density at 470 nm
Procedure: The action of the compounds I or Ia as skin lighteners is tested through their ability to inhibit the enzyme tyrosinase and thus to suppress melanin synthesis.
The inhibiting action of the compounds of the formula I or Ia against tyrosinase is assessed using tyrosinase from fungi and L-DOPA as substrate.
The compounds, as described in Examples 1 to 3 and the comparative compounds of Examples 10 and 11, and L-dopa are pre-incubated for 10 minutes at 25° C. in phosphate buffer (pH 6.8), and tyrosinase from fungi (16U) (Fluka) is subsequently added. The optical density of the samples is measured at 470 nm against a negative control (without active compound). Kojic acid is likewise tested as tyrosinase reference, i.e. positive control.
The results are shown in the following table, expressed in the IC50 value (the concentration of the test compound at which 50% of the tyrosinase activity is inhibited).

IC50 (concentration of the test compound at which 50% of the tyrosinase activity is inhibited)	SMILES
No inhibition	Cc1c(C)c2c(c(C)c1O)C(C)(C)CC(=O)O2 [Example 11, 6-hydroxy-4,4,5,7,8-pentamethylchroman-2-one]
No inhibition	Cc1cc(O)c(C)c2c1OC(=O)CC2(C)C [Example 10, 6-hydroxy-4,4,5,8-tetramethylchroman-2-one]

same assay, conditions: tyrosinase from fungi (16U), phosphate buffer pH 6.8, 25° C., optical density at 470 nm, read-out: IC50 (concentration of the test compound at which 50% of the tyrosinase activity is inhibited)

IC50	SMILES
336 µM	CCc1cc2c(cc1O)OC(=O)CC2 [6-Ethyl-7-hydroxychroman-2-one, 6-ethyl-7-hydroxychroman-2-one]
1000 µM	O=C1CCc2ccc(O)cc2O1 [7-Hydroxychroman-2-one, 7-hydroxychroman-2-one]
25 µM	CCCCCCc1cc2c(cc1O)OC(=O)CC2 [6-Hexyl-7-hydroxychroman-2-one, 6-hexyl-7-hydroxychroman-2-one]

SMILES	IC50
O=c1cc(CO)occ1O [Kojic acid]	12 µM

— US20100291009A1, “PREPARATION COMPRISING CHROMAN-2-ONE DERIVATIVES” (Merck Patent Gesellschaft Mit Beschrankter Haftung, priority 2008, published 2010)
